# Data taken from patent US10869871B2, “Compositions and methods of modulating short-chain dehydrogenase activity” (CASE WESTERN RESERVE UNIVERSITY, priority 2013, dated 2020).
# Key:
# bone marrow = assay: Homing of CFSE labeled bone marrow cells to marrow of irradiated recipient mice; assay type: in vivo, mouse; conditions: for effect on SW033291 induced increase of homing: co-administered with SW033291 10 mg/kg IP
# Method: Drugs are administered following radiation, following the transplant, and again at 8 hours after the transplant.
# mouse bone marrow = assay: Hematopoietic colonies from wild-type mouse bone marrow treated ex vivo; assay type: cell-based; conditions: 1 μM ex vivo on ice for 2 hours
# Source text: Treated marrow is again then plated into methylcellulose for counting of hematopoietic colonies.
# recombinant 15-PGDH [1] = target: T1, recombinant 15-PGDH (Homo sapiens (Human), UniProt P15428); assay: Thermal melt shift of recombinant 15-PGDH protein (SYPRO Orange); assay type: binding
# [2] = test system: 15-PGDH-luciferase fusion protein reporter in Vaco-9M (V9M) cell line; assay: 15-PGDH-luciferase fusion reporter induction in Vaco-9M (V9M) cells; assay type: cell-based
# Method: Some residual activity is seen for isomer B when added at 3.2 μM concentration. The small residual activity of isomer A may be due to possible 3% contamination with some residual isomer B.
# recombinant 15-PGDH [3] = target: T1, recombinant 15-PGDH; assay: Inhibition of enzymatic activity of recombinant 15-PGDH in an in vitro assay; assay type: biochemical; conditions: FIG. 97
# 15-PGDH protein = assay: Western blot of 15-PGDH protein levels in treated cell lines; assay type: cell-based; conditions: […] compound for 48 hours
# [4] = test system: 15-PGDH-luciferase fusion reporter in V9m, LS174T and V503 colon cancer cell lines; assay: 15-PGDH-luciferase fusion reporter induction in colon cancer cell lines; assay type: cell-based; conditions: for luciferase activity of 15-PGDH luciferase fusion cells: V9m, LS174T, V503, relative to DMSO
# A549 cells = assay: PGE2 levels in medium of IL1-beta stimulated A549 cells; assay type: cell-based
# cell culture = assay: Toxicity: concentration needed to decrease cell numbers in a cell culture assay; assay type: cell-based
# Method: Time to inhibition refers to the time needed to inhibit the generation of NADH by 15-PGDH from the moment with drug is added into the reaction mix. Delta Tm refers to the shift in melting temperature of recombinant 15-PGDH in the presence of drug (with cofactor NADH also present). Concentration of Full Cell Line Reporter Induction refers to the concentration of drug that needs to be added to reporter cell line to achieve maximal induction of the 15-PGDH-luciferase gene fusion reporter cassette, as measured by luciferase assays. Hepatocyte stability refers to the half-life of compound in the presence of hepatocytes in culture. Toxicity refers to the concentration of compound needed to decrease cell numbers in a cell culture assay.
# [5] = Immediate toxicity after IP injection into mice; assay type: in vivo; conditions: injected IP into mice at 50 mg/kg body weight
# cell lines = assay: PGE2 production by cell lines; assay type: cell-based; conditions: read-out: EC50 for increase of PGE2 production by cell lines
# [6] = test system: PGE2 in colon, bone marrow, liver, lung; assay: PGE2 in mouse tissues after IP injection; assay type: in vivo
# [7] = Stability when incubated with liver extracts; assay type: in vitro ADME; conditions: incubated with mouse, rat and human liver extracts
# [8] = Chemical stability in aqueous solutions; assay type: physicochemical; conditions: over broad pH range
# T1 sequence (P15428 whole entry, the tested form may be a part): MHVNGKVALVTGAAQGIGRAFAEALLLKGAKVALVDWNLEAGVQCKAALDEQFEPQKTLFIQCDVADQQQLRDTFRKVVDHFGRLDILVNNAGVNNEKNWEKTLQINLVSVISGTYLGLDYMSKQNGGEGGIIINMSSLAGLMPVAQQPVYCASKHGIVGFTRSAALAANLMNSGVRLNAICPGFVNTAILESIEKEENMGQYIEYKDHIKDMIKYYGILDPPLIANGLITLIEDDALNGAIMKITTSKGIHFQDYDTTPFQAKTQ
molecule,measurement,setting,value
"CCCCc1nn(-c2ccccc2C(F)(F)F)c(=O)n1Cc1ccc(-c2ccccc2S(=O)(=O)NC(=O)c2sccc2C)cc1 [L-161,982]",effect on SW033291 induced increase of homing,bone marrow,near completely blocked
COc1ccc2cc(OCC3(C(=O)O)CN(C(=O)c4ccc(F)cc4)C3)ccc2c1 [PF-04418948],effect on SW033291 induced increase of homing,bone marrow,partially blocked
"CCCCC[C@H](O)/C=C/[C@H]1[C@H](O)CC(=O)[C@@H]1C/C=C\CCCC(=O)O [PGE2, prostaglandin E2]",increase in number of bone marrow derived colonies relative to SW033291,mouse bone marrow,lesser increase
CCCC[S@](C)(O)c1sc2nc(-c3cccs3)cc(-c3ccccc3)c2c1N [SW033291 isomer B],melting temperature of 15-PGDH,"recombinant 15-PGDH [1]; Differential Scanning Fluorimetry, DMSO control 50.5° C.",68 °C
same,concentration giving full reporter activity,[2],0.1 µM
same,IC50 lower than the parent racemic mixture,recombinant 15-PGDH [3],40%
COc1ccc(OC)c(N(CC(=O)Nc2cccnc2)S(=O)(=O)c2ccccc2)c1 [SW054384],direct binding to 15-PGDH by melting temperature shift,recombinant 15-PGDH [1]; 10 μM and 100 μM cofactor NAD or NADH,cannot be demonstrated to bind 15-PGDH
same,levels of 15-PGDH protein (western blot),15-PGDH protein,increase levels of 15-PGDH protein
same,luciferase activity of 15-PGDH luciferase fusion cells,[4],increase luciferase activity
O=C(c1ccc2nc(-c3ccccc3)c(-c3ccccc3)nc2c1)N1CCCCC1 [SW145753],"PGE2 level in medium, reflecting 15-PGDH activity","A549 cells; IL1-beta 23 hours, compound added for last 5 hours",clear inhibition of 15-PGDH activity
same,levels of 15-PGDH protein (western blot),15-PGDH protein,increase levels of 15-PGDH protein
same,luciferase activity of 15-PGDH luciferase fusion cells,[4],increase luciferase activity
CCCC[S+]([O-])c1sc2nc(-c3cccs3)ccc2c1N (stereo not shown) [SW206980],highest PGE2 level achieved in medium,"A549 cells; IL-1β 16 h, compound 8 h",2500 pg/mL
same,Toxicity,cell culture,>7.5 µM
CCCC[S+]([O-])c1sc2nc(-c3nccs3)ccc2c1N (stereo not shown) [SW206992],concentration at which maximal PGE2 effect attained,"A549 cells; IL-1β 16 h, compound 8 h",2.5 µM
same,highest PGE2 level achieved in medium,"A549 cells; IL-1β 16 h, compound 8 h",2100 pg/mL
same,Concentration for Full Cell Line Reporter Induction,[4]; concentration to achieve maximal induction of 15-PGDH-luciferase reporter,>1 µM
same,Toxicity,cell culture,>7.5 µM
"CCCC[S+]([O-])c1sc2nc(-c3nccs3)cc(-c3cnc(C)n3C)c2c1N (stereo not shown) [SW209415, 2-(butylsulfinyl)-4-(1,2-dimethyl-1H-imidazol-5-yl)-6-(thiazol-2-yl)thieno[2,3-b]pyridin-3-amine]",increase of homed cells in recipient mouse bone marrow,"bone marrow; 10 mg/kg IP, FACS 16 hours post-transplant",approximately 2.5 fold
"CCCCC(C)(C)[C@H](O)/C=C/[C@H]1[C@H](O)CC(=O)[C@@H]1C/C=C\CCCC(=O)O [dmPGE2, 16,16-dimethyl PGE2]",increase in number of bone marrow derived colonies relative to SW033291,mouse bone marrow,slightly greater increase
CCCC[S+]([O-])c1sc2nc(-c3nccs3)cc(-c3cnc(C)n3C)c2c1N (stereo not shown) [formula (XIII)],homing of hematopoietic stem cells following bone marrow transplantation,"bone marrow; mouse, 10 mg/kg body weight",increases homing of hematopoietic stem cells
same,immediate toxicity over 24 hours,[5],no immediate toxicity
same,EC50,cell lines,~20 nM
same,"PGE2 levels in colon, lung, liver and bone marrow",[6]; IP dose of 10 mg/kg body weight,elevates PGE2 levels
same,chemical stability with liver extracts,[7],"chemically stable when incubated with mouse, rat and human liver extracts"
same,chemical stability in aqueous solutions,[8],chemically stable in aqueous solutions over broad pH range
COc1ccc2c(c1)c(CC(=O)O)c(C)n2C(=O)c1ccc(Cl)cc1 [indomethacin],effect on SW033291 induced increase of homing,bone marrow,near completely blocked
(+) SW209415,"peak PGE2 levels in lung, liver, colon and bone marrow","[6]; IP 0.5, 1.5 or 5 mg/kg, peak at 3 hours",approximately double those of vehicle control
